{"source": "patent US11214803B2", "about": "“Modulators of YAP1 expression” (Ionis Pharmaceuticals, Inc., priority 2019, dated 2022)", "key": {"[1]": {"assay": "Cynomolgus monkey tolerability, body and organ weight measurements (Example 34)", "format": "in vivo", "details": "cynomolgus monkeys, 35 mg/kg subcutaneously; for Heart weight / Kidney weight / Liver with gallbladder weight / Spleen weight: necropsy; for Terminal Body Weight: prior to necropsy", "in_short": "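Monkeys given modified oligonucleotides, observed twice daily, and euthanized on day 86, about 48 h after the last dose. Terminal body weight taken before necropsy; organ weights measured.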"}, "[2]": {"assay": "Cynomolgus monkey tolerability, hematology (Example 34)", "format": "in vivo, cynomolgus monkeys", "details": "for BAS / EOS / HCT / HGB / LUC / LYM / MCH / MCHC / MCV / MON / NEU / PLT / RBC / RCDW / Retic / WBC: cynomolgus monkey, in vivo, sc, 35 mg/kg; for MPV: cynomolgus monkeys, 35 mg/kg subcutaneously, day 44", "in_short": "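On day 44, blood from oligonucleotide-treated cynomolgus monkeys was collected into K2-EDTA. An automated analyzer measured red cell indices, reticulocytes, platelets and MPV, and total and differential white cell counts.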"}, "[3]": {"system": "SCC25 cells", "assay": "Cell proliferation assay in SCC25 cells, CellTiter-Glo (Example 25)", "format": "cell-based, human", "details": "free uptake, 144 hours"}, "[4]": {"system": "Yap1 mRNA", "assay": "Yap1 mRNA in SCC25 cells, RNA analysis (Example 25)", "format": "cell-based, human", "details": "free uptake, 48 hours, RTS4814, normalized to actin-beta", "in_short": "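SCC25 squamous carcinoma cells at 5,000 cells/well dosed by free uptake with oligonucleotides at graded concentrations; non-complementary 3-10-3 cET gapmer as control. After ~48 h, Yap1 mRNA measured by RT-qPCR (RTS4814), normalized to actin-beta (RTS5002). Values are % of untreated control (% UTC).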"}, "[5]": {"assay": "Cynomolgus monkey tolerability, kidney and liver function markers (Example 34)", "details": "cynomolgus monkeys, 35 mg/kg subcutaneously, day 44"}, "[6]": {"details": "rat, in vivo, sc, 50 mg/kg", "description": "Male Sprague-Dawley rats were maintained on a 12-hour light/dark cycle and fed ad libitum with Purina normal rat chow. Groups of 4 Sprague-Dawley rats each were weekly injected subcutaneously with 50 mg/kg of Ionis oligonucleotide for 6 weeks (total 7 doses). Forty-eight hours after the last dose, the rats were euthanized; and organs, urine and plasma were harvested for further analysis.\nTo evaluate the effect of Ionis oligonucleotides on kidney function, urinary levels of total protein and creatinine were measured using an automated clinical chemistry analyzer (Hitachi Olympus AU400c, Melville, N.Y.)."}, "[7]": {"system": "Yap1 mRNA", "assay": "Inhibition of human Yap1 mRNA in SNU449 hepatocellular carcinoma xenograft tumors (Example 26)", "format": "in vivo", "details": "SNU449 xenografts in NSG mice, 50 mg/kg twice weekly for five days, relative to PBS treated animals", "in_short": "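Female NSG mice bearing subcutaneous SNU449 xenografts (about 100 mm^3) dosed with modified oligonucleotides at 50 mg/kg twice weekly for five days, four per group. Tumour Yap1 mRNA measured by RT-qPCR, normalized to actin-beta, expressed as % of PBS-treated controls.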"}, "[8]": {"assay": "Tolerability in Sprague-Dawley rats, body and organ weights (Example 22)", "format": "in vivo", "details": "male Sprague-Dawley rats, 50 mg/kg s.c. weekly for 6 weeks (7 doses); for Kidney weight / Liver weight / Spleen weight: end of study; for body weight: terminal, prior to necropsy", "method": "Terminal body weight was measured prior to necropsy. Ionis oligonucleotides that caused any changes in organ weights outside the expected range for modified oligonucleotides were excluded from further studies."}}, "data": [{"substance": "1198831 (CACTTTTACATTAGGA; chemically modified gapmer, further chemistry not given here) [compound 1198831]", "values": [{"measurement": "Heart weight", "setting": "[1]", "result": 11, "unit": "g"}, {"measurement": "Kidney weight", "setting": "[1]", "result": 14, "unit": "g"}, {"measurement": "Liver with gallbladder weight", "setting": "[1]", "result": 65, "unit": "g"}, {"measurement": "Spleen weight", "setting": "[1]", "result": 4, "unit": "g"}, {"measurement": "Terminal Body Weight", "setting": "[1]", "result": 2788, "unit": "g"}, {"measurement": "BAS", "setting": "[2]", "result": 0.3, "unit": "%"}, {"measurement": "EOS", "setting": "[2]", "result": 2.0, "unit": "%"}, {"measurement": "HCT", "setting": "[2]", "result": 43, "unit": "%"}, {"measurement": "HGB", "setting": "[2]", "result": 13, "unit": "g/dL"}, {"measurement": "LUC", "setting": "[2]", "result": 0.8, "unit": "%"}, {"measurement": "LYM", "setting": "[2]", "result": 50, "unit": "%"}, {"measurement": "MCH", "setting": "[2]", "result": 23, "unit": "pg"}, {"measurement": "MCHC", "setting": "[2]", "result": 30, "unit": "g/dL"}, {"measurement": "MCV", "setting": "[2]", "result": 76, "unit": "fL"}, {"measurement": "MON", "setting": "[2]", "result": 3.3, "unit": "%"}, {"measurement": "NEU", "setting": "[2]", "result": 44, "unit": "%"}, {"measurement": "PLT", "setting": "[2]", "result": "377 10^3/μL"}, {"measurement": "RBC", "setting": "[2]", "result": "5.6e+06", "unit": "µL⁻¹"}, {"measurement": "RCDW", "setting": "[2]", "result": 12, "unit": "%"}, {"measurement": "Retic", "setting": "[2]", "result": 1.0, "unit": "%"}, {"measurement": "WBC", "setting": "[2]", "result": 7600, "unit": "µL⁻¹"}, {"measurement": "MPV", "setting": "[2]", "result": 7.3, "unit": "fL"}, {"measurement": "cell proliferation (luminescence) % UTC", "setting": "[3]; 0.04 μM", "result": 88, "unit": "% UTC"}, {"measurement": "cell proliferation (luminescence) % UTC", "setting": "[3]; 0.2 μM", "result": 54, "unit": "% UTC"}, {"measurement": "cell proliferation (luminescence) % UTC", "setting": "[3]; 1 μM", "result": 25, "unit": "% UTC"}, {"measurement": "cell proliferation (luminescence) % UTC", "setting": "[3]; 5 μM", "result": 21, "unit": "% UTC"}, {"measurement": "Yap1 mRNA, % UTC", "setting": "[4]; 0.04 μM", "result": 63, "unit": "% UTC"}, {"measurement": "Yap1 mRNA, % UTC", "setting": "[4]; 0.2 μM", "result": 36, "unit": "% UTC"}, {"measurement": "Yap1 mRNA, % UTC", "setting": "[4]; 1 μM", "result": 16, "unit": "% UTC"}, {"measurement": "Yap1 mRNA, % UTC", "setting": "[4]; 5 μM", "result": 14, "unit": "% UTC"}, {"measurement": "ALB", "setting": "[5]", "result": 3.9, "unit": "g/dL"}, {"measurement": "ALP", "setting": "[5]", "result": 1096, "unit": "IU/L"}, {"measurement": "ALT", "setting": "[5]", "result": 48, "unit": "IU/L"}, {"measurement": "AST", "setting": "[5]", "result": 63, "unit": "IU/L"}, {"measurement": "BUN", "setting": "[5]", "result": 26, "unit": "mg/dL"}, {"measurement": "CREA", "setting": "[5]", "result": 0.7, "unit": "mg/dL"}, {"measurement": "GGT", "setting": "[5]", "result": 65, "unit": "IU/L"}, {"measurement": "GLO", "setting": "[5]", "result": 2.8, "unit": "g/dL"}, {"measurement": "GLU", "setting": "[5]", "result": 73, "unit": "mg/dL"}, {"measurement": "HDL", "setting": "[5]", "result": 108, "unit": "mg/dL"}, {"measurement": "LDL", "setting": "[5]", "result": 63, "unit": "mg/dL"}, {"measurement": "TBIL", "setting": "[5]", "result": 0.3, "unit": "mg/dL"}, {"measurement": "TG", "setting": "[5]", "result": 22, "unit": "mg/dL"}, {"measurement": "TP", "setting": "[5]", "result": 6.7, "unit": "g/dL"}, {"measurement": "URINE P/C ratio (total protein to creatinine ratio)", "setting": "[6]", "result": 17}, {"measurement": "Yap1 mRNA in tumors, % control", "setting": "[7]", "result": 67, "unit": "% control"}, {"measurement": "Kidney weight", "setting": "[8]", "result": 3.3, "unit": "g"}, {"measurement": "Liver weight", "setting": "[8]", "result": 19, "unit": "g"}, {"measurement": "Spleen weight", "setting": "[8]", "result": 2.0, "unit": "g"}, {"measurement": "body weight", "setting": "[8]", "result": 426, "unit": "g"}]}, {"substance": "1198872 (TGTATGTCAGAAGAGT; chemically modified gapmer, further chemistry not given here) [compound 1198872]", "values": [{"measurement": "Heart weight", "setting": "[1]", "result": 12, "unit": "g"}, {"measurement": "Kidney weight", "setting": "[1]", "result": 15, "unit": "g"}, {"measurement": "Liver with gallbladder weight", "setting": "[1]", "result": 63, "unit": "g"}, {"measurement": "Spleen weight", "setting": "[1]", "result": 4, "unit": "g"}, {"measurement": "Terminal Body Weight", "setting": "[1]", "result": 3126, "unit": "g"}, {"measurement": "BAS", "setting": "[2]", "result": 0.3, "unit": "%"}, {"measurement": "EOS", "setting": "[2]", "result": 0.6, "unit": "%"}, {"measurement": "HCT", "setting": "[2]", "result": 44, "unit": "%"}, {"measurement": "HGB", "setting": "[2]", "result": 13, "unit": "g/dL"}, {"measurement": "LUC", "setting": "[2]", "result": 0.5, "unit": "%"}, {"measurement": "LYM", "setting": "[2]", "result": 32, "unit": "%"}, {"measurement": "MCH", "setting": "[2]", "result": 23, "unit": "pg"}, {"measurement": "MCHC", "setting": "[2]", "result": 30, "unit": "g/dL"}, {"measurement": "MCV", "setting": "[2]", "result": 78, "unit": "fL"}, {"measurement": "MON", "setting": "[2]", "result": 2.2, "unit": "%"}, {"measurement": "NEU", "setting": "[2]", "result": 64, "unit": "%"}, {"measurement": "PLT", "setting": "[2]", "result": "400 10^3/μL"}, {"measurement": "RBC", "setting": "[2]", "result": "5.7e+06", "unit": "µL⁻¹"}, {"measurement": "RCDW", "setting": "[2]", "result": 12, "unit": "%"}, {"measurement": "Retic", "setting": "[2]", "result": 1.2, "unit": "%"}, {"measurement": "WBC", "setting": "[2]", "result": 10400, "unit": "µL⁻¹"}, {"measurement": "MPV", "setting": "[2]", "result": 7.1, "unit": "fL"}, {"measurement": "cell proliferation (luminescence) % UTC", "setting": "[3]; 0.04 μM", "result": 82, "unit": "% UTC"}, {"measurement": "cell proliferation (luminescence) % UTC", "setting": "[3]; 0.2 μM", "result": 37, "unit": "% UTC"}, {"measurement": "cell proliferation (luminescence) % UTC", "setting": "[3]; 1 μM", "result": 22, "unit": "% UTC"}, {"measurement": "cell proliferation (luminescence) % UTC", "setting": "[3]; 5 μM", "result": 18, "unit": "% UTC"}, {"measurement": "Yap1 mRNA, % UTC", "setting": "[4]; 0.04 μM", "result": 54, "unit": "% UTC"}, {"measurement": "Yap1 mRNA, % UTC", "setting": "[4]; 0.2 μM", "result": 22, "unit": "% UTC"}, {"measurement": "Yap1 mRNA, % UTC", "setting": "[4]; 1 μM", "result": 9, "unit": "% UTC"}, {"measurement": "Yap1 mRNA, % UTC", "setting": "[4]; 5 μM", "result": 7, "unit": "% UTC"}, {"measurement": "ALB", "setting": "[5]", "result": 4.0, "unit": "g/dL"}, {"measurement": "ALP", "setting": "[5]", "result": 1098, "unit": "IU/L"}, {"measurement": "ALT", "setting": "[5]", "result": 48, "unit": "IU/L"}, {"measurement": "AST", "setting": "[5]", "result": 94, "unit": "IU/L"}, {"measurement": "BUN", "setting": "[5]", "result": 27, "unit": "mg/dL"}, {"measurement": "CREA", "setting": "[5]", "result": 0.9, "unit": "mg/dL"}, {"measurement": "GGT", "setting": "[5]", "result": 79, "unit": "IU/L"}, {"measurement": "GLO", "setting": "[5]", "result": 3.1, "unit": "g/dL"}, {"measurement": "GLU", "setting": "[5]", "result": 80, "unit": "mg/dL"}, {"measurement": "HDL", "setting": "[5]", "result": 114, "unit": "mg/dL"}, {"measurement": "LDL", "setting": "[5]", "result": 60, "unit": "mg/dL"}, {"measurement": "TBIL", "setting": "[5]", "result": 0.3, "unit": "mg/dL"}, {"measurement": "TG", "setting": "[5]", "result": 19, "unit": "mg/dL"}, {"measurement": "TP", "setting": "[5]", "result": 7.1, "unit": "g/dL"}, {"measurement": "URINE P/C ratio (total protein to creatinine ratio)", "setting": "[6]", "result": 8}, {"measurement": "Yap1 mRNA in tumors, % control", "setting": "[7]", "result": 52, "unit": "% control"}, {"measurement": "Kidney weight", "setting": "[8]", "result": 3.4, "unit": "g"}, {"measurement": "Liver weight", "setting": "[8]", "result": 17, "unit": "g"}, {"measurement": "Spleen weight", "setting": "[8]", "result": 1.3, "unit": "g"}, {"measurement": "body weight", "setting": "[8]", "result": 417, "unit": "g"}]}]}
